Source: the supplement of paper PMC10307832

What was measured:
Test in all cases: relative viability (nuclei count vs DMSO), 5 days (fraction); higher = more cells survive
[1] = test system: NCI-H2405
Outline: (§1)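 Lung cancer cell lines in 1536-well plates got either a single drug or a fixed anchor-drug dose together with five library-drug doses (not always all listed) in √10 steps, by pin tool, on the day after seeding. Nuclei were counted after 5 days, and relative viability is the treated-to-vehicle ratio of nuclei counts. Values are medians of duplicate plates.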

[2] = test system: NCI-H2347
Outline: as §1

[3] = test system: NCI-H1793
Outline: as §1

[4] = test system: NCI-H441
Outline: as §1

[5] = test system: LOU-NH91
Outline: as §1

[6] = test system: NCI-H650
Outline: as §1

[7] = test system: ChaGo-K-1
Outline: as §1

[8] = test system: EMC-BAC-2
Outline: as §1

[9] = test system: NCI-H1437
Outline: as §1

[10] = test system: SW 900
Outline: as §1

[11] = test system: NCI-H2170
Outline: as §1

[12] = test system: HOP-62
Outline: as §1

[13] = test system: HCC-44
Outline: as §1

[14] = test system: NCI-H460
Outline: as §1

[15] = test system: NCI-H727
Outline: as §1

[16] = test system: NCI-H647
Outline: as §1

[17] = test system: EPLC-272H
Outline: as §1

[18] = test system: NCI-H2126
Outline: as §1

SMILES: COCC1(CO)C(=O)C2CCN1CC2 (stereo unspecified) [PRIMA-1MET] + NC(=O)Nc1cc(-c2cccc(F)c2)sc1C(=O)N[C@H]1CCCNC1 [AZD7762] (partner 0.2 µM)
- relative viability ([1]; first compound 0.2 µM): 0.753
- relative viability ([1]; first compound 0.6325 µM): 0.748
- relative viability ([1]; first compound 6.325 µM): 0.676
- relative viability ([1]; first compound 20 µM): 0.0739
- relative viability ([2]; first compound 0.2 µM): 0.709
- relative viability ([2]; first compound 0.6325 µM): 0.668
- relative viability ([2]; first compound 2 µM): 0.569
- relative viability ([2]; first compound 6.325 µM): 0.761
- relative viability ([2]; first compound 20 µM): 0.525
- relative viability ([3]; first compound 0.2 µM): 0.408
- relative viability ([3]; first compound 0.6325 µM): 0.651
- relative viability ([3]; first compound 6.325 µM): 0.685
- relative viability ([3]; first compound 20 µM): 0.382
- relative viability ([4]; first compound 0.2 µM): 1.09
- relative viability ([4]; first compound 0.6325 µM): 1.06
- relative viability ([4]; first compound 2 µM): 0.833
- relative viability ([4]; first compound 6.325 µM): 1.1
- relative viability ([4]; first compound 20 µM): 0.731
- relative viability ([5]; first compound 0.2 µM): 0.828
- relative viability ([5]; first compound 0.6325 µM): 0.74
- relative viability ([5]; first compound 2 µM): 0.658
- relative viability ([5]; first compound 6.325 µM): 0.71
- relative viability ([5]; first compound 20 µM): 0.386
- relative viability ([6]; first compound 0.2 µM): 0.961
- relative viability ([6]; first compound 0.6325 µM): 0.828
- relative viability ([6]; first compound 2 µM): 0.983
- relative viability ([6]; first compound 6.325 µM): 0.995
- relative viability ([6]; first compound 20 µM): 0.148
- relative viability ([7]; first compound 0.2 µM): 0.765
- relative viability ([7]; first compound 0.6325 µM): 0.794
- relative viability ([7]; first compound 2 µM): 0.819
- relative viability ([7]; first compound 6.325 µM): 0.85
- relative viability ([7]; first compound 20 µM): 0.779
- relative viability ([8]; first compound 0.2 µM): 1.34
- relative viability ([8]; first compound 0.6325 µM): 1.07
- relative viability ([8]; first compound 2 µM): 0.989
- relative viability ([8]; first compound 6.325 µM): 1.12
- relative viability ([8]; first compound 20 µM): 1.01
- relative viability ([9]; first compound 0.2 µM): 1.16
- relative viability ([9]; first compound 0.6325 µM): 1.09
- relative viability ([9]; first compound 2 µM): 1.03
- relative viability ([9]; first compound 6.325 µM): 1.12
- relative viability ([9]; first compound 20 µM): 1.05
- relative viability ([10]; first compound 0.2 µM): 0.553
- relative viability ([10]; first compound 0.6325 µM): 0.632
- relative viability ([10]; first compound 6.325 µM): 0.573
- relative viability ([10]; first compound 20 µM): 0.101
- relative viability ([11]; first compound 0.2 µM): 1.06
- relative viability ([11]; first compound 0.6325 µM): 0.604
- relative viability ([11]; first compound 2 µM): 0.644
- relative viability ([11]; first compound 6.325 µM): 1
- relative viability ([11]; first compound 20 µM): 0.836
- relative viability ([12]; first compound 0.2 µM): 0.653
- relative viability ([12]; first compound 0.6325 µM): 0.387
- relative viability ([12]; first compound 2 µM): 0.482
- relative viability ([12]; first compound 6.325 µM): 0.655
- relative viability ([12]; first compound 20 µM): 0.273
- relative viability ([13]; first compound 0.2 µM): 1.02
- relative viability ([13]; first compound 0.6325 µM): 1.01
- relative viability ([13]; first compound 2 µM): 1.18
- relative viability ([13]; first compound 6.325 µM): 1.03
- relative viability ([13]; first compound 20 µM): 1.01
- relative viability ([14]; first compound 0.2 µM): 0.705
- relative viability ([14]; first compound 0.6325 µM): 0.382
- relative viability ([14]; first compound 2 µM): 0.659
- relative viability ([14]; first compound 6.325 µM): 0.703
- relative viability ([14]; first compound 20 µM): 0.251
- relative viability ([15]; first compound 0.2 µM): 0.505
- relative viability ([15]; first compound 0.6325 µM): 0.62
- relative viability ([15]; first compound 6.325 µM): 0.421
- relative viability ([15]; first compound 20 µM): 0.349
- relative viability ([16]; first compound 0.2 µM): 0.578
- relative viability ([16]; first compound 0.6325 µM): 0.434
- relative viability ([16]; first compound 2 µM): 0.38
- relative viability ([16]; first compound 6.325 µM): 0.383
- relative viability ([16]; first compound 20 µM): 0.137
- relative viability ([17]; first compound 0.2 µM): 0.236
- relative viability ([17]; first compound 0.6325 µM): 0.123
- relative viability ([17]; first compound 2 µM): 0.178
- relative viability ([17]; first compound 6.325 µM): 0.262
- relative viability ([17]; first compound 20 µM): 0.147
- relative viability ([18]; first compound 0.2 µM): 1.05
- relative viability ([18]; first compound 0.6325 µM): 1.02
- relative viability ([18]; first compound 2 µM): 0.975
- relative viability ([18]; first compound 6.325 µM): 1.02
- relative viability ([18]; first compound 20 µM): 0.978
